System: SNU-398
Assay: In vitro proliferation assay, liver cancer cell line SNU-398
Format: cell-based
Details: Homo sapiens, 96 hours of drug exposure, AKR1C3 protein Low, read-out: 3424 IC50
Protocol: IC50 was calculated as described above.

SMILES: C[C@H](OP(=O)(N1CC1)N1CC1)c1ccc([N+](=O)[O-])c(Oc2cccc(C(=O)N(C)C)c2)c1 [Compound 3424, (S)-1-(3-(3-N,N-dimethylaminocarbonyl)phenoxyl-4-mtrophenyl)-1-ethyl-N,N′-bis(ethylene)phosphoramidate]
- IC50: > 1 µM
